# According to publication PMC8213057, “Targeting ALK2: An Open Science Approach to Developing Therapeutics for the Treatment of Diffuse Intrinsic Pontine Glioma” (Journal of Medicinal Chemistry, 2020):
# Assays:
# AXL = molecular target: T1, AXL (Homo sapiens, UniProt P30530); test: biochemical; conditions: read-out: % enzyme activity, 1 μM; Run 1, Run 2
# T1 sequence (P30530 26-894): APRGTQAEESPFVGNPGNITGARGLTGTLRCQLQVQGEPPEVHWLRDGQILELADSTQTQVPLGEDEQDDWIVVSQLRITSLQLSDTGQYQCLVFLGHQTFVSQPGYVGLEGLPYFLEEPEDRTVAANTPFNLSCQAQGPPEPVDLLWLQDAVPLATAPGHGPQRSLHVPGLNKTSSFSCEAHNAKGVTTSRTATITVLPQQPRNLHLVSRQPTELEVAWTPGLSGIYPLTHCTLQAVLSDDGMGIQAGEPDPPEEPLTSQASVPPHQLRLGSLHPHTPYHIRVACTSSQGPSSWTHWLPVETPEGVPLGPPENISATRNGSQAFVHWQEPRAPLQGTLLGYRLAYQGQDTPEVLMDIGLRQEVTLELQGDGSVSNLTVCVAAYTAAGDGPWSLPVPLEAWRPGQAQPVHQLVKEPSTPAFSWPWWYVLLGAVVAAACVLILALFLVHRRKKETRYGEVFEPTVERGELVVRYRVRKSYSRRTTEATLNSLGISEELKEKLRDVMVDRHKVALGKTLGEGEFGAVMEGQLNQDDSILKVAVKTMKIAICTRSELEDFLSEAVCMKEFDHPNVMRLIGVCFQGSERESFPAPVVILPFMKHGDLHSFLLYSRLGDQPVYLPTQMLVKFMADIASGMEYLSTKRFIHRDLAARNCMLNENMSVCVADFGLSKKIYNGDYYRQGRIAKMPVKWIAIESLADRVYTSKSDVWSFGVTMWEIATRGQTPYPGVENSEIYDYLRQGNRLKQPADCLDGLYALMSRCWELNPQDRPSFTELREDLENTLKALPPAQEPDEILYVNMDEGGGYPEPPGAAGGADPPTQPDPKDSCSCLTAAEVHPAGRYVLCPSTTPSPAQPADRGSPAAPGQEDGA
# GRK1 = molecular target: T2, GRK1 (Homo sapiens, UniProt Q15835); test: biochemical; conditions: read-out: % enzyme activity, 1 μM; Run 1, Run 2
# T2 sequence (Q15835 1-563): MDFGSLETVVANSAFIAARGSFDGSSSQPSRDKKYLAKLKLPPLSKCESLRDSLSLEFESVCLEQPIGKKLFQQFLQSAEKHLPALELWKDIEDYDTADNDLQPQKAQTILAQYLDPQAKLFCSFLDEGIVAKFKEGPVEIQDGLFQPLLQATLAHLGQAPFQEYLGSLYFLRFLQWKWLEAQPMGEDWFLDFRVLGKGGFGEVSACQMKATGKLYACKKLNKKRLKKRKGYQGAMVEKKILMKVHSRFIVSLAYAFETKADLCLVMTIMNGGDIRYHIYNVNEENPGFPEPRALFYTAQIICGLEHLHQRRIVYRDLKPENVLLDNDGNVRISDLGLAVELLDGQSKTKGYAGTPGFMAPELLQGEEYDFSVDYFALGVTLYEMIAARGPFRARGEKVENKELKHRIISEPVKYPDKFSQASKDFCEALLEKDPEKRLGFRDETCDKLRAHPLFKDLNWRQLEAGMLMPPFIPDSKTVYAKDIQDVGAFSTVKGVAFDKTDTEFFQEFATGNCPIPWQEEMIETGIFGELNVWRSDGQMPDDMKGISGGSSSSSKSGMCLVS
# P38a/MAPK14 = P38a/MAPK14 (Homo sapiens, UniProt Q16539); conditions: 1 μM; Run 1, Run 2
# IRR/INSRR = IRR/INSRR (Homo sapiens, UniProt P14616); conditions: 1 μM; Run 1, Run 2
# TTBK1 = TTBK1 (Homo sapiens, UniProt Q5TCY1); conditions: 1 μM; Run 1, Run 2
# Sequence of TTBK1 (Q5TCY1 whole entry): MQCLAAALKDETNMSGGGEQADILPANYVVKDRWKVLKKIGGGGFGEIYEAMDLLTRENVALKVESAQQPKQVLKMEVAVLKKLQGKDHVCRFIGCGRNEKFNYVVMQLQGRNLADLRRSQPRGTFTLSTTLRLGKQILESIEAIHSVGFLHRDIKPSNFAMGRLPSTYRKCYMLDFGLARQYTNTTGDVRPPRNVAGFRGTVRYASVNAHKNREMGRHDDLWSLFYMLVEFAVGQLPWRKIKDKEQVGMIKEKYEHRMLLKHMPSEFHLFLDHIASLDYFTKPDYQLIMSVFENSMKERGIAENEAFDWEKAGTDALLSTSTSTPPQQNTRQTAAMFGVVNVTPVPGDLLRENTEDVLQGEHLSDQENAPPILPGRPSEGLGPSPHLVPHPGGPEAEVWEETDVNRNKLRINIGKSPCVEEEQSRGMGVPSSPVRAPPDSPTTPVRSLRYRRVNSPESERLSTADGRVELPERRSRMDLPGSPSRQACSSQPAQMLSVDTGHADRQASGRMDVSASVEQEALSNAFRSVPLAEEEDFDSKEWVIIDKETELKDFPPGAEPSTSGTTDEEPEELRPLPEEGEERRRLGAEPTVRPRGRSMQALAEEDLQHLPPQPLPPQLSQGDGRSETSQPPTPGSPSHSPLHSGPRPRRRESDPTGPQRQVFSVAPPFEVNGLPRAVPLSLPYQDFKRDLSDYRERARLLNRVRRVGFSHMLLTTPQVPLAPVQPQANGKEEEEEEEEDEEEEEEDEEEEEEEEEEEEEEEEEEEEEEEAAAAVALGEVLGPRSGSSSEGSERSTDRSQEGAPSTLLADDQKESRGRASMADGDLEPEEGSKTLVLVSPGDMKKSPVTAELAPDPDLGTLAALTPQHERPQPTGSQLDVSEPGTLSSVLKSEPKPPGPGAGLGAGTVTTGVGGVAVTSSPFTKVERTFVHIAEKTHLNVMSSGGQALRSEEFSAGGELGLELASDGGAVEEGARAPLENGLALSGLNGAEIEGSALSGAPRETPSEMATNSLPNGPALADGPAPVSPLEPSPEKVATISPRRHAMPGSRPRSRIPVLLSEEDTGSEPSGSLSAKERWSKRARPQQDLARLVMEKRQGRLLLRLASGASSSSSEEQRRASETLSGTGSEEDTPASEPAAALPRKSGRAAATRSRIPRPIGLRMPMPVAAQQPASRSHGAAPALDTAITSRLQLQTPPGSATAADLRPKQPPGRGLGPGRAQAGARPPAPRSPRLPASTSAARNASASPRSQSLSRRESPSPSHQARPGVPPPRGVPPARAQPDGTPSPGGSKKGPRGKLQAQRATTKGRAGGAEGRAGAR
# OSR1/OXSR1 = OSR1/OXSR1 (Homo sapiens, UniProt O95747); conditions: 1 μM; Run 1, Run 2
# Sequence of OSR1/OXSR1 (O95747 whole entry): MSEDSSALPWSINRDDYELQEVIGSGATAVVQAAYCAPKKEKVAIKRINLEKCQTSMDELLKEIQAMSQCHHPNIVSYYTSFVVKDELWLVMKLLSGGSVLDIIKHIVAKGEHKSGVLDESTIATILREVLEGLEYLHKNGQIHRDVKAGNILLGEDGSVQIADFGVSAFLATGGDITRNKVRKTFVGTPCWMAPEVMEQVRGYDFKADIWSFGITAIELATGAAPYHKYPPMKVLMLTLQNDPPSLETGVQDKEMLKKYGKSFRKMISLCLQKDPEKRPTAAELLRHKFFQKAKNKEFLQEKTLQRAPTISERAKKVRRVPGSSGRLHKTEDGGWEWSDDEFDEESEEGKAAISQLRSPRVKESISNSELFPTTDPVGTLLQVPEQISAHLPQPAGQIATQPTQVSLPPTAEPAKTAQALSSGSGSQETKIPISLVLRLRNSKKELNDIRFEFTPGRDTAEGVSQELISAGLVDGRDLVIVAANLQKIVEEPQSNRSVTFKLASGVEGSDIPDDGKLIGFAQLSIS
# ULK2 = molecular target: T3, ULK2 (Homo sapiens, UniProt Q8IYT8); conditions: 1 μM; Run 1, Run 2
# T3 sequence (Q8IYT8 1-1036): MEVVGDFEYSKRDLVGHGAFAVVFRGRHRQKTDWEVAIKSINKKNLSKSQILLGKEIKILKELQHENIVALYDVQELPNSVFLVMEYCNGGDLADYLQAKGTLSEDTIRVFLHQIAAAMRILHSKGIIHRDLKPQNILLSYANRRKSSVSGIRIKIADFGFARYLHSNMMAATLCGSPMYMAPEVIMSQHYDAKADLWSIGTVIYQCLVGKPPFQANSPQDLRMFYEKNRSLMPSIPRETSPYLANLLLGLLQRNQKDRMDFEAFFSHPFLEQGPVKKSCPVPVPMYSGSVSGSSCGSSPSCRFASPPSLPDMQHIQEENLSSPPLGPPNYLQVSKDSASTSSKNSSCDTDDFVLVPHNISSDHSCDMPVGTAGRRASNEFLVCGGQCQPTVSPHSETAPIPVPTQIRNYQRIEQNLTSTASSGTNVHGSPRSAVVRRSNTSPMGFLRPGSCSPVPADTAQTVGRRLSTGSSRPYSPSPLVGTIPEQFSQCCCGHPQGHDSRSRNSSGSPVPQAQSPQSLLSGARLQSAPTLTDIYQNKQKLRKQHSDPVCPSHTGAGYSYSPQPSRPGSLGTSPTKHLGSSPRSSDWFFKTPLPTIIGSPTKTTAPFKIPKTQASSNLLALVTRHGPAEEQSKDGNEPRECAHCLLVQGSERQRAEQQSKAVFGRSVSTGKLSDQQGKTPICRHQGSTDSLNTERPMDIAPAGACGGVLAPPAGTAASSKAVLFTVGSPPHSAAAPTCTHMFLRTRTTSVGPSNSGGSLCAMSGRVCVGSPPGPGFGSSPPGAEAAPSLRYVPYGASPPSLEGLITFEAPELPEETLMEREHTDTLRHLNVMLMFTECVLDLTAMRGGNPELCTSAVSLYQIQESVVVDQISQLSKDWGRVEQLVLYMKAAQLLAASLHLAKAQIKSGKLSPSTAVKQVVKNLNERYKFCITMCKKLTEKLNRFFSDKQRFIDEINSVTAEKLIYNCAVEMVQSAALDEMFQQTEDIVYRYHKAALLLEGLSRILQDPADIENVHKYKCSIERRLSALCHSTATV
# WNK3 = WNK3 (Homo sapiens, UniProt Q9BYP7); test: biochemical; conditions: read-out: % enzyme activity, 1 μM; Run 1, Run 2
# Sequence of WNK3 (Q9BYP7 whole entry, species assumed): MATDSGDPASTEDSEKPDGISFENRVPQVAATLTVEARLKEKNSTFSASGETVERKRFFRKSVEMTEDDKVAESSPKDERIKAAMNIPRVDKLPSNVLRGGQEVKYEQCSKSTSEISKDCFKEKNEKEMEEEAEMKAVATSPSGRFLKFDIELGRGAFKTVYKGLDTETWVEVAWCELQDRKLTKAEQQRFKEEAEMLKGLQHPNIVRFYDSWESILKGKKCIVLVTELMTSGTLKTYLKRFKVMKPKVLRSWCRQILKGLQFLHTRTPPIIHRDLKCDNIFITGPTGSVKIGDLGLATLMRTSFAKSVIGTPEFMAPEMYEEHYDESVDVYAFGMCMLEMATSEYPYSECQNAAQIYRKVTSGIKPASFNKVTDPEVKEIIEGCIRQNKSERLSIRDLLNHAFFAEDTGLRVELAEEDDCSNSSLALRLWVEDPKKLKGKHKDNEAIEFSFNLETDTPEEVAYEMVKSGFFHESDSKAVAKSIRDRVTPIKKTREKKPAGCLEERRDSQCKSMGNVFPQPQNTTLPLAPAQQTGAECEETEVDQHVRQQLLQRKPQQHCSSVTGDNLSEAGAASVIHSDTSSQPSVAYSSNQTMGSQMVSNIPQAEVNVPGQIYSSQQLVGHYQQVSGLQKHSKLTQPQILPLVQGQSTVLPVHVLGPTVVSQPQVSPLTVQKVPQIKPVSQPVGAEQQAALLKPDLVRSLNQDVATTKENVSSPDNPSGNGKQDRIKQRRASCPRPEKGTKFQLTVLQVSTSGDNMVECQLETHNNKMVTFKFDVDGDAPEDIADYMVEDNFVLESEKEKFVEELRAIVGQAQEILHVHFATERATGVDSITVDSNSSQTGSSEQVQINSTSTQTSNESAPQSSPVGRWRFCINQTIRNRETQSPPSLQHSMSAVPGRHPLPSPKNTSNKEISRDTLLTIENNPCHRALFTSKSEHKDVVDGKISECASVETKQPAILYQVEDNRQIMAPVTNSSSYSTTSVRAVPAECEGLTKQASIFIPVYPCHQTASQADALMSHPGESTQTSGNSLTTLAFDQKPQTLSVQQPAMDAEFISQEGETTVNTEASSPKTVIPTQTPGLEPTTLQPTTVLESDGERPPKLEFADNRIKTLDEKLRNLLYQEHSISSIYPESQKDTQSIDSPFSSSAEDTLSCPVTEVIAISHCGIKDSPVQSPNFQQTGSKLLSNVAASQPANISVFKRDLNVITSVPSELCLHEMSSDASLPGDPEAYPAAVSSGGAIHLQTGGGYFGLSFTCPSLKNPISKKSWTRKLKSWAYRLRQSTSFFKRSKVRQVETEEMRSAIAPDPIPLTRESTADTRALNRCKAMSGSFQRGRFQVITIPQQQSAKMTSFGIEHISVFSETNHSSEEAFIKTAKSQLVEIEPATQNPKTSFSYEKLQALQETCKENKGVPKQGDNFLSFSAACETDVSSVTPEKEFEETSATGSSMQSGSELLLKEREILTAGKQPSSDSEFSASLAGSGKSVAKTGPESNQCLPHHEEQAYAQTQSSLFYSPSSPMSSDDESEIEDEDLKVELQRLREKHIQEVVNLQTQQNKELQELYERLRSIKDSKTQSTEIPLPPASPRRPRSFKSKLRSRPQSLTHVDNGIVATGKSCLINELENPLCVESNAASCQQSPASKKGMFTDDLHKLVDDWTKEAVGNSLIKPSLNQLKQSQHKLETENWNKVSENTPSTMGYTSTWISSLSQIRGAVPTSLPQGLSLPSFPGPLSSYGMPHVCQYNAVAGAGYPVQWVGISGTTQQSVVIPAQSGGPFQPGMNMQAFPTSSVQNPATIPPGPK
# MAPKAPK2 = MAPKAPK2 (Homo sapiens, UniProt P49137); test: biochemical; conditions: read-out: % enzyme activity, 1 μM; Run 1, Run 2
# Sequence of MAPKAPK2 (P49137 whole entry): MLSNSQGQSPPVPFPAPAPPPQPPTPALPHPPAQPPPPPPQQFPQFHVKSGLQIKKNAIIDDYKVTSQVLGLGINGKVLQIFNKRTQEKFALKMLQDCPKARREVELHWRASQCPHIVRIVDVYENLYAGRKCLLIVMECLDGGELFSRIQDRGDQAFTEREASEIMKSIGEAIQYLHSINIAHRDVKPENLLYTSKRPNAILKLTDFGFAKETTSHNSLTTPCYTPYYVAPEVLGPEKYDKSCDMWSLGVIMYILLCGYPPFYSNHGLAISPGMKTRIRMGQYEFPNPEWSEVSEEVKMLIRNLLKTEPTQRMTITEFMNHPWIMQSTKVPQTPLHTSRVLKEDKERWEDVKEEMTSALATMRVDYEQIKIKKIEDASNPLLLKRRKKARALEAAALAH
# MLK4 = MLK4 (Homo sapiens, UniProt Q5TCX8); conditions: 1 μM; Run 1, Run 2
# Sequence of MLK4 (Q5TCX8 whole entry): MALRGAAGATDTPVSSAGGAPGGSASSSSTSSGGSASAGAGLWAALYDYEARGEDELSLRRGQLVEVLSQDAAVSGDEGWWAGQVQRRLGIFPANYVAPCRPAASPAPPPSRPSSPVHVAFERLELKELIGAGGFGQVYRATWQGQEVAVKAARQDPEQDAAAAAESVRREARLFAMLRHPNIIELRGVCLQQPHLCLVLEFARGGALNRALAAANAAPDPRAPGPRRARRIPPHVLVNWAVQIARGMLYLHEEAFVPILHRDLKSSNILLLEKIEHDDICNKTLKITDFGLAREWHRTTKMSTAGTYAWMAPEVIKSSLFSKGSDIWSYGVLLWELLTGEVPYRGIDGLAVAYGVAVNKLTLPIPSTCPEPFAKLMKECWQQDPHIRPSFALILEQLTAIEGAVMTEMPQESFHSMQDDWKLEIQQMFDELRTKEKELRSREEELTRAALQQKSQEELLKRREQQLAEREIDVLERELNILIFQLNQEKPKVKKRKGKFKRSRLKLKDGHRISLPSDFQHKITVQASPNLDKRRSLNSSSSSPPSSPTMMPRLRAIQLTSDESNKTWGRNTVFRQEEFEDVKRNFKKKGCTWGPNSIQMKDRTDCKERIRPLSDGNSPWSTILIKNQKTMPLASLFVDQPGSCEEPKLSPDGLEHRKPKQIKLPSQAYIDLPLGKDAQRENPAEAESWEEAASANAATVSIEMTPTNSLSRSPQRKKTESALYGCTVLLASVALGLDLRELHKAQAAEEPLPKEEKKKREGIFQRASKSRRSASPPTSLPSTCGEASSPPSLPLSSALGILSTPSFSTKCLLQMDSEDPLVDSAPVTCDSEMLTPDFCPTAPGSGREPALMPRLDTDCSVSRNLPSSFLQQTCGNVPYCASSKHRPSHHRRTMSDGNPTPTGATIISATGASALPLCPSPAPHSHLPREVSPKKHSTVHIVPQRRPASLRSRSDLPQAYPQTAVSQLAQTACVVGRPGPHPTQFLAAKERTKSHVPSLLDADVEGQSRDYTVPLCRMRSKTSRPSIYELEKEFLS
Compound,remaining activity at 1 µM (AXL) [%],remaining activity at 1 µM (GRK1) [%],% enzyme activity (P38a/MAPK14) [%],% enzyme activity (IRR/INSRR) [%],% enzyme activity (TTBK1) [%],% enzyme activity (OSR1/OXSR1) [%],% enzyme activity (ULK2) [%],remaining activity at 1 µM (WNK3) [%],remaining activity at 1 µM (MAPKAPK2) [%],% enzyme activity (MLK4) [%],CYP inhibition (CYP2C19) [µM]
"COc1cc(-c2cncc(-c3ccc(N4CCN(C)CC4)cc3)c2C)cc(F)c1C(N)=O [Compound 26a, 2-Fluoro-6-methoxy-4-(4-methyl-5-(4-(4-methylpiperazin-1-yl)phenyl)pyridin-3-yl)benzamide]",81.8,94,91.67,99.85,96.78,93.34,73.24,89.6,103,95.21,> 50
"COc1cc(-c2cncc(-c3ccc(N4C[C@@H](C)N(C)[C@@H](C)C4)cc3)c2C)cc(F)c1C(N)=O [Compound 26c, 2-Fluoro-6-methoxy-4-(4-methyl-5-(4-((3R,5S)-3,4,5-trimethylpiperazin-1-yl)phenyl)pyridin-3-yl)benzamide]",91.3,95.3,96.02,113.76,98.52,94.75,84.46,93.8,95.4,93.38,> 50
